Test results from ChEMBL document CHEMBL1156056, “Phosphoinositide-3-kinase (PI3K) inhibitors: identification of new scaffolds using virtual screening” (Bioorg Med Chem Lett, 2009).

Experiments:
[1] = molecular target: Phosphatidylinositol 4,5-bisphosphate 3-kinase catalytic subunit alpha isoform (Mus musculus, UniProt P42337); assay: Inhibition of mouse recombinant PI3Kalpha expressed in baculovirus-infected Sf21 cells
[2] = Inhibition of bovine recombinant PI3Kgamma expressed in baculovirus-infected Sf21 cells; design: species or system Bos taurus
[3] = molecular target: T1, Phosphatidylinositol 4,5-bisphosphate 3-kinase catalytic subunit delta isoform (Homo sapiens) (UniProt O00329); assay: Inhibition of recombinant PI3Kdelta expressed in baculovirus-infected Sf21 cells at 100 uM
T1 sequence (whole entry): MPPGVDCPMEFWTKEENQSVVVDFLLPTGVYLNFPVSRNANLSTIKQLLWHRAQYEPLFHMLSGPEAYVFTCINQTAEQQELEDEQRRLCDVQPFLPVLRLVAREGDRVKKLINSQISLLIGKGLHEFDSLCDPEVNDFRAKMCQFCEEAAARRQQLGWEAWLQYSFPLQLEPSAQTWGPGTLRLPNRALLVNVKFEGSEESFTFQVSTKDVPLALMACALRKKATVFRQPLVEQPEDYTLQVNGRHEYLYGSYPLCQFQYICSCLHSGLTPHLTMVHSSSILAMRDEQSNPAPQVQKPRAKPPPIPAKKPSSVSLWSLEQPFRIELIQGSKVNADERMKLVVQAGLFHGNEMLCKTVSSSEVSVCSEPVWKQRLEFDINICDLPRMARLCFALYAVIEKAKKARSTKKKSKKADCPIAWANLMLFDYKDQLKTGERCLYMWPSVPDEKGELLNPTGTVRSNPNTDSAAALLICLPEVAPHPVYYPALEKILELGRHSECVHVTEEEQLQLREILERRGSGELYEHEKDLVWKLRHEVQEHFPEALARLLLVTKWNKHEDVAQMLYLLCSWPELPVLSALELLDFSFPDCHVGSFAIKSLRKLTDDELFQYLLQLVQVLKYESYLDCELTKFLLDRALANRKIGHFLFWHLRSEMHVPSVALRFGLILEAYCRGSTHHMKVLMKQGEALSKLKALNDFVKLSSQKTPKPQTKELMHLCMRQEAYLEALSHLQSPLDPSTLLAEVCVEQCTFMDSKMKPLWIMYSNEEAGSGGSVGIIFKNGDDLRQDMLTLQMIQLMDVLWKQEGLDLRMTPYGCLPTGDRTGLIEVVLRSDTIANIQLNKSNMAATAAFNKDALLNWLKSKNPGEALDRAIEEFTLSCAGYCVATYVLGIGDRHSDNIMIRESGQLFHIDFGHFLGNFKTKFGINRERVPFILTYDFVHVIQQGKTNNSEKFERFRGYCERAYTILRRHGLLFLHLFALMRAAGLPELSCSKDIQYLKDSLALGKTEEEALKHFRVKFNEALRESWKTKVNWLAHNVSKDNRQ

[4] = molecular target: T2, Phosphatidylinositol 4,5-bisphosphate 3-kinase catalytic subunit beta isoform (Homo sapiens, UniProt P42338); assay: Inhibition of human recombinant PI3Kbeta expressed in baculovirus-infected Sf21 cells
Target sequence in this assay (P42338 whole entry, canonical isoform): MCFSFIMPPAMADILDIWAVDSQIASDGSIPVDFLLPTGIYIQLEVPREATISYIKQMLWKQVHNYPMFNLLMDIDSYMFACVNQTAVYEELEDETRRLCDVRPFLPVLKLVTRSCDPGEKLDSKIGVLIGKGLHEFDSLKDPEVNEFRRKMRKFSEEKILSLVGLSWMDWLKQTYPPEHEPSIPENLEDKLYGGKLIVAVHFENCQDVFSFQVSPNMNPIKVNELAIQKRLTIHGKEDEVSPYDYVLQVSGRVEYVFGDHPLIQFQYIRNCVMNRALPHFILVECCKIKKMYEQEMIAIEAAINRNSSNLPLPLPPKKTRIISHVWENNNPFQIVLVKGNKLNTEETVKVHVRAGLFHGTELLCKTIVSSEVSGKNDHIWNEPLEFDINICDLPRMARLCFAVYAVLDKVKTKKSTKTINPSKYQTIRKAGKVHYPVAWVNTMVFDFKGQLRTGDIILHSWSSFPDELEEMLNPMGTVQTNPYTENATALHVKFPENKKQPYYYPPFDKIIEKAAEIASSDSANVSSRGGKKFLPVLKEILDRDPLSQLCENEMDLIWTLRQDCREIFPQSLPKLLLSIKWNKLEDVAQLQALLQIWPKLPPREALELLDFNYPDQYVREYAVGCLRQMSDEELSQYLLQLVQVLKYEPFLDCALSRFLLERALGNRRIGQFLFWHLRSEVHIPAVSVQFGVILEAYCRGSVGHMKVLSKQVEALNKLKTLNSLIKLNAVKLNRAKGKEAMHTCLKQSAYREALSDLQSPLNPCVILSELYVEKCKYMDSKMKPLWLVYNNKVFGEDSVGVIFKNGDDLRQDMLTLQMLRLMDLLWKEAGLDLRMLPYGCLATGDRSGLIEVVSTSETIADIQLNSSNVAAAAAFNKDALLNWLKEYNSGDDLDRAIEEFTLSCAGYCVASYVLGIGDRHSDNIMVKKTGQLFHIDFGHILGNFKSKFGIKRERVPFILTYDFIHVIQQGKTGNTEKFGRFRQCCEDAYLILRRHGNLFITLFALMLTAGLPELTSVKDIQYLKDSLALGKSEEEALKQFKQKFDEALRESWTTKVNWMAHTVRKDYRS

[5] = molecular target: T2, Phosphatidylinositol 4,5-bisphosphate 3-kinase catalytic subunit beta isoform; assay: Inhibition of human recombinant PI3Kbeta expressed in baculovirus-infected Sf21 cells at 100 uM
Target sequence in this assay (P42338 whole entry, looked up, canonical isoform): as the sequence (P42338 whole entry, canonical isoform) above

[6] = Inhibition of bovine recombinant PI3Kgamma expressed in baculovirus-infected Sf21 cells at 100 uM; details: Bos taurus
[7] = molecular target: Phosphatidylinositol 4,5-bisphosphate 3-kinase catalytic subunit alpha isoform (Mus musculus) (UniProt P42337); assay: Inhibition of mouse recombinant PI3Kalpha expressed in baculovirus-infected Sf21 cells at 100 uM
[8] = molecular target: T3, Phosphatidylinositol 4,5-bisphosphate 3-kinase catalytic subunit delta isoform (Homo sapiens, UniProt O00329); assay: Inhibition of recombinant PI3Kdelta expressed in baculovirus-infected Sf21 cells
T3 sequence (O00329 whole entry): T1 sequence (whole entry)

[9] = Selectivity for PI3Kgamma over PI3Kbeta
[10] = Selectivity for PI3Kgamma over PI3Kdelta
[11] = Selectivity for PI3Kgamma over PI3Kalpha

Sequence of Phosphatidylinositol 4,5-bisphosphate 3-kinase catalytic subunit alpha isoform (Mus musculus) (P42337 whole entry, canonical isoform): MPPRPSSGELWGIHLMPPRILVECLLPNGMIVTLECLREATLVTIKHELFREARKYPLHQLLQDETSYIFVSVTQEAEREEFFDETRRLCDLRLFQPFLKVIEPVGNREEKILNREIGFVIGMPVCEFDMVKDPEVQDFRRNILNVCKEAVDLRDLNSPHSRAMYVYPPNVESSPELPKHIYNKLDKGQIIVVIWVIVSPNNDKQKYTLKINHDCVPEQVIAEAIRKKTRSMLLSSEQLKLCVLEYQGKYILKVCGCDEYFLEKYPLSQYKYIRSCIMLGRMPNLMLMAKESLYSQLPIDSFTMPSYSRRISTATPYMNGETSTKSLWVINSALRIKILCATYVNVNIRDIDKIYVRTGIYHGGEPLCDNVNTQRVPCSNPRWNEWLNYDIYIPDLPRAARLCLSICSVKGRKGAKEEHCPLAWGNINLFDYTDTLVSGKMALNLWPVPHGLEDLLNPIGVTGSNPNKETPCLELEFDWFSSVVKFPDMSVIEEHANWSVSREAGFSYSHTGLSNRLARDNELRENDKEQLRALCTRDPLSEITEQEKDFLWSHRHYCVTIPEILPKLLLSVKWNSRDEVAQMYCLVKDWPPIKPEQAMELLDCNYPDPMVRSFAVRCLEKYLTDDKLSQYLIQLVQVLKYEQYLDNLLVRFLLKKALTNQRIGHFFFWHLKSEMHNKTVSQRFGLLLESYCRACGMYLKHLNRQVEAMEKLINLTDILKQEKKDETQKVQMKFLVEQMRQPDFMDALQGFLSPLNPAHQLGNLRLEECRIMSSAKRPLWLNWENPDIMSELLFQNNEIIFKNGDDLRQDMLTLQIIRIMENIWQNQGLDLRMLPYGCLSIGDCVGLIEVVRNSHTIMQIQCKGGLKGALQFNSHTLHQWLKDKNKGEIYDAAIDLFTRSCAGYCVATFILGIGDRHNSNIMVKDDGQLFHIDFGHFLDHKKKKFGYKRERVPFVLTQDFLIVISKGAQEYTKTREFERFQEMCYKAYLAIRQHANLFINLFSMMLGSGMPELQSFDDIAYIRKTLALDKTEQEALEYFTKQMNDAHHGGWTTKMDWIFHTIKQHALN
Sequence of Phosphatidylinositol 4,5-bisphosphate 3-kinase catalytic subunit alpha isoform (P42337 whole entry, canonical isoform): as above

Compound | IC50 [1] [µM] | IC50 [2] [µM] | inhibition [3] [%] | IC50 [4] [µM] | inhibition [5] [%] | inhibition [6] [%] | inhibition [7] [%] | IC50 [8] [µM] | Ratio [9] | Ratio [10] | Ratio [11]
COc1nc(-c2ccccc2)ccc1-c1noc(-c2ccncc2)n1 | 78 | > 100 | > 40 | > 100 | > 40 | > 40 | > 40 |  |  |  | 
COc1ccccc1-c1nc(-c2cc3cc(C)ccc3[nH]c2=O)no1 | > 100 | 75 | > 40 |  | > 40 | > 40 | > 40 |  |  |  | 
COc1cccc(-c2nc(-c3cc4cc(OC)ccc4[nH]c3=O)no2)c1 | 0.9 | 4 | > 40 | 3 | > 40 | > 40 | > 40 | 0.9 |  |  | 
O=c1oc2cc(O)ccc2cc1-c1nc2ccccc2s1 | 3 | 12 | > 40 | 14 | > 40 | > 40 | > 40 | 4 |  |  | 
COC(=O)c1ccc(CSc2ncnc3sc(C)c(C)c23)o1 | > 100 | 71 | > 40 | > 100 | > 40 | > 40 | > 40 | > 100 |  |  | 
Cc1ccc2cc3c(OC(=O)COc4ccccc4)nn(C)c3nc2c1 | 38 | 16 | > 40 | > 100 | > 40 | > 40 | > 40 | 47 |  |  | 
O=c1cc(N2CCOCC2)oc2c(-c3ccccc3)cccc12 [LY-294002] |  |  | > 40 |  | > 40 | > 40 | > 40 |  |  |  | 
O=C1NC(=O)/C(=C/c2ccc3nccnc3c2)S1 |  |  |  |  |  |  |  |  | > 30 | > 30 | 7.5
O=C(CCn1c(=O)oc2cc(Cl)ccc21)Nc1ccccc1 | 19 | 6 | > 40 | 12 | > 40 | > 40 | > 40 | > 100 |  |  | 
